Experimental data: ChEMBL document CHEMBL1201862, “PubChem BioAssay data set” (2004)
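Tested at 5 concentrations; 48 h exposure; 96-well plates; endpoints linearly interpolated, else capped at highest concentration. Here, GI50 denotes the concentration required for 50% inhibition of growth.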 Active and inactive are the calls of the source. Rule as the data show it: active = GI50 up to about 1.1 µM and inactive = higher.

What was measured:
Assay in all cases: NCI tumour cell line growth inhibition, 48 h
COLO 205 = test system: COLO 205
HCC 2998 = test system: HCC 2998
HT-29 = test system: HT-29
MDA-N = test system: MDA-N
U-251 = test system: U-251
HCT-116 = test system: HCT-116
ACHN = test system: ACHN
SNB-19 = test system: SNB-19
SF-295 = test system: SF-295
NCI-H23 = test system: NCI-H23
A549 = test system: A549
MOLT-4 = test system: MOLT-4
SK-MEL-2 = test system: SK-MEL-2
786-0 = test system: 786-0
T47D = test system: T47D
SR = test system: SR
K562 = test system: K562
NCI-H522 = test system: NCI-H522
SF-539 = test system: SF-539
RXF 393 = test system: RXF 393
CCRF-CEM = test system: CCRF-CEM
SNB-75 = test system: SNB-75
MDA-MB-231 = test system: MDA-MB-231
M14 = test system: M14
RPMI-8226 = test system: RPMI-8226
UACC-257 = test system: UACC-257
Hs-578T = test system: Hs-578T
SK-OV-3 = test system: SK-OV-3
UACC-62 = test system: UACC-62
SW-620 = test system: SW-620
OVCAR-3 = test system: OVCAR-3
SK-MEL-5 = test system: SK-MEL-5
HOP-92 = test system: HOP-92
KM12 = test system: KM12
HL-60 = test system: HL-60
OVCAR-5 = test system: OVCAR-5
CAKI-1 = test system: CAKI-1
OVCAR-8 = test system: OVCAR-8
NCI-H460 = test system: NCI-H460
A498 = test system: A498
PC-3 = test system: PC-3
TK-10 = test system: TK-10
NCI-H226 = test system: NCI-H226
OVCAR-4 = test system: OVCAR-4
SF-268 = test system: SF-268
BT-549 = test system: BT-549
MDA-MB-435 = test system: MDA-MB-435
UO-31 = test system: UO-31
Malme-3M = test system: Malme-3M
IGROV-1 = test system: IGROV-1
HOP-62 = test system: HOP-62
EKVX = test system: EKVX
SN12C = test system: SN12C
HCT-15 = test system: HCT-15
DU-145 = test system: DU-145
SK-MEL-28 = test system: SK-MEL-28
LOX IMVI = test system: LOX IMVI

C=C1C(O)C23CCC4C(C(=O)O)(C(=O)O)CC(OC5OC(CO)C(O)C(OC(=O)CCc6ccccc6)C5NC(=O)CC(C)C)CC4(C)C2CCC1(O)C3 (configuration not stated)
GI50 (COLO 205): > 100 µM (inactive) | GI50 (HCC 2998): > 100 µM (inactive) | GI50 (HT-29): > 100 µM (inactive) | GI50 (MDA-N): > 100 µM (inactive) | GI50 (U-251): > 100 µM (inactive) | GI50 (HCT-116): > 100 µM (inactive) | GI50 (ACHN): > 100 µM (inactive) | GI50 (SNB-19): > 100 µM (inactive) | GI50 (SF-295): > 100 µM (inactive) | GI50 (NCI-H23): > 100 µM (inactive) | GI50 (A549): > 100 µM (inactive) | GI50 (MOLT-4): > 100 µM (inactive) | GI50 (SK-MEL-2): > 100 µM (inactive) | GI50 (786-0): > 100 µM (inactive) | GI50 (T47D): > 100 µM (inactive) | GI50 (SR): > 100 µM (inactive) | GI50 (K562): > 100 µM (inactive) | GI50 (NCI-H522): > 100 µM (inactive) | GI50 (SF-539): > 100 µM (inactive) | GI50 (RXF 393): > 100 µM (inactive) | GI50 (CCRF-CEM): > 100 µM (inactive) | GI50 (SNB-75): > 100 µM (inactive) | GI50 (MDA-MB-231): > 100 µM (inactive) | GI50 (M14): > 100 µM (inactive) | GI50 (RPMI-8226): > 100 µM (inactive) | GI50 (UACC-257): > 100 µM (inactive) | GI50 (Hs-578T): > 100 µM (inactive) | GI50 (SK-OV-3): > 100 µM (inactive) | GI50 (UACC-62): > 100 µM (inactive) | GI50 (SW-620): > 100 µM (inactive) | GI50 (OVCAR-3): > 100 µM (inactive) | GI50 (SK-MEL-5): > 100 µM (inactive) | GI50 (HOP-92): > 100 µM (inactive) | GI50 (KM12): > 100 µM (inactive) | GI50 (HL-60): > 100 µM (inactive) | GI50 (OVCAR-5): > 100 µM (inactive) | GI50 (CAKI-1): > 100 µM (inactive) | GI50 (OVCAR-8): > 100 µM (inactive) | GI50 (NCI-H460): > 100 µM (inactive) | GI50 (A498): > 100 µM (inactive) | GI50 (PC-3): > 100 µM (inactive) | GI50 (TK-10): > 100 µM (inactive) | GI50 (NCI-H226): > 100 µM (inactive) | GI50 (OVCAR-4): > 100 µM (inactive) | GI50 (SF-268): > 100 µM (inactive) | GI50 (BT-549): > 100 µM (inactive) | GI50 (MDA-MB-435): > 100 µM (inactive) | GI50 (UO-31): > 100 µM (inactive) | GI50 (Malme-3M): > 100 µM (inactive) | GI50 (IGROV-1): > 100 µM (inactive) | GI50 (HOP-62): > 100 µM (inactive) | GI50 (EKVX): > 100 µM (inactive) | GI50 (SN12C): > 100 µM (inactive) | GI50 (HCT-15): > 100 µM | GI50 (DU-145): > 100 µM (inactive) | GI50 (SK-MEL-28): > 100 µM (inactive) | GI50 (LOX IMVI): > 100 µM (inactive)
